Test results published in PubChem BioAssay AID2060604 (Molecular Pharmacology Branch, DTP, NCI, 2025).
“And” between values parts separate entries of the source, which are not always exact repeats. Identical values can stand only once. One block for each molecule: values may come before it.

System: 379773-124-R-J2-PDC complex spheroids, viability % test/control
Assay: Anticancer human tumor 379773-124-R-J2-PDC patient-derived endometrial carcinoma cell line growth inhibition [CLK]
Settings: for viability, T/C: stronger effect = lower value
Outline: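 Multi-cell-type spheroids combined patient-derived tumor cells with HUVEC endothelial cells and human mesenchymal stem cells. Paired agents were dosed in half-log steps down from about clinical Cmax, or from 10 microM where Cmax was unknown.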
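Also: compound exposure lasted seven days before the viability readout.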
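For viability, T/C in this document: 100% = DMSO vehicle control wells.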

- IC50 (curve of compound): 72.6 nM and 45.9 nM
Compound: NC(=O)C(=Cn1cnc(-c2cc(C(F)(F)F)cc(C(F)(F)F)c2)n1)c1cncnc1
- viability, T/C (compound 0.00949 µM): 83.8% and 85.3%
- viability, T/C (compound 0.03 µM): 74.8% and 59.7%
- viability, T/C (compound 0.0949 µM): 41.1% and 33.7%
- viability, T/C (compound 0.3 µM): 19.5% and 14.4%
- viability, T/C (compound 0.949 µM): 13.9% and 7.66%
- viability, T/C (compound 3 µM): 4.42% and 2.99%

- IC50 (curve of first compound, second compound 0.0316 µM): > 10000 nM
- IC50 (curve of first compound, second compound 0.1 µM): < 31.6 nM
- IC50 (curve of first compound, second compound 0.316 µM): < 31.6 nM
- IC50 (curve of first compound, second compound 1 µM): < 31.6 nM
- IC50 (curve of first compound, second compound 3.16 µM): < 31.6 nM
- IC50 (curve of first compound, second compound 10 µM): < 31.6 nM
Compound: O=c1[nH]cc(F)c(=O)[nH]1 + CNC(=O)c1ccc(Nc2nc(OC3CCCC3)c3c(-c4ccc5nc(C)oc5c4)c[nH]c3n2)c(OC)c1
- viability, T/C (second compound 0.0316 µM, first compound 0.0316 µM): 86.5%
- viability, T/C (second compound 0.0316 µM, first compound 0.1 µM): 76.3%
- viability, T/C (second compound 0.0316 µM, first compound 0.316 µM): 80.7%
- viability, T/C (second compound 0.0316 µM, first compound 1 µM): 70.5%
- viability, T/C (second compound 0.0316 µM, first compound 3.16 µM): 70.8%
- viability, T/C (second compound 0.0316 µM, first compound 10 µM): 54.5%
- viability, T/C (second compound 0.1 µM, first compound 0.0316 µM): 50.4%
- viability, T/C (second compound 0.1 µM, first compound 0.1 µM): 35.9%
- viability, T/C (second compound 0.1 µM, first compound 0.316 µM): 31.5%
- viability, T/C (second compound 0.1 µM, first compound 1 µM): 33.3%
- viability, T/C (second compound 0.1 µM, first compound 3.16 µM): 29.7%
- viability, T/C (second compound 0.1 µM, first compound 10 µM): 28.2%
- viability, T/C (second compound 0.316 µM, first compound 0.0316 µM): 41%
- viability, T/C (second compound 0.316 µM, first compound 0.1 µM): 35.2%
- viability, T/C (second compound 0.316 µM, first compound 0.316 µM): 34.5%
- viability, T/C (second compound 0.316 µM, first compound 1 µM): 33.7%
- viability, T/C (second compound 0.316 µM, first compound 3.16 µM): 24%
- viability, T/C (second compound 0.316 µM, first compound 10 µM): 18.1%
- viability, T/C (second compound 1 µM, first compound 0.0316 µM): 36.9%
- viability, T/C (second compound 1 µM, first compound 0.1 µM): 29.2%
- viability, T/C (second compound 1 µM, first compound 0.316 µM): 30.5%
- viability, T/C (second compound 1 µM, first compound 1 µM): 27.2%
- viability, T/C (second compound 1 µM, first compound 3.16 µM): 20.2%
- viability, T/C (second compound 1 µM, first compound 10 µM): 10.7%
- viability, T/C (second compound 3.16 µM, first compound 0.0316 µM): 36.1%
- viability, T/C (second compound 3.16 µM, first compound 0.1 µM): 37.1%
- viability, T/C (second compound 3.16 µM, first compound 0.316 µM): 34.8%
- viability, T/C (second compound 3.16 µM, first compound 1 µM): 19.3%
- viability, T/C (second compound 3.16 µM, first compound 3.16 µM): 15.3%
- viability, T/C (second compound 3.16 µM, first compound 10 µM): 9.65%
- viability, T/C (second compound 10 µM, first compound 0.0316 µM): 42.5%
- viability, T/C (second compound 10 µM, first compound 0.1 µM): 31.3%
- viability, T/C (second compound 10 µM, first compound 0.316 µM): 28.6%
- viability, T/C (second compound 10 µM, first compound 1 µM): 23.5%
- viability, T/C (second compound 10 µM, first compound 3.16 µM): 14.4%
- viability, T/C (second compound 10 µM, first compound 10 µM): 9.98%
